Assay results published in US11149054B2, “Oxysterols and methods of use thereof” (Sage Therapeutics, Inc., priority 2016, dated 2021).
Where two headings read alike, the source gives them in different places.

How the values were obtained:
[1] = biological target: GlunN1/GluN2A glutamate receptors (Homo sapiens (Human), UniProt Q05586+Q12879); assay: Whole-cell patch clamp of mammalian cells (Ionworks Barracuda), positive allosteric modulation, GluN1/GluN2A; assay type: cell-based
Procedure: (§1) The measurements were performed using Ion Works Barracuda platform following this procedure:
(§2) Electrophysiological Procedures:
(§3) • a) Intracellular solution (mM): 50 mM CsCl, 90 mM CsF, 2 mM MgCl2, 5 mM EGTA, 10 mM HEPES. Adjust to pH 7.2 with CsOH. • b) Extracellular solution, HB-PS (composition in mM): NaCl, 137; KCl, 1.0; CaCl2), 5; HEPES, 10; Glucose, 10; pH adjusted to 7.4 with NaOH (refrigerated until use). • c) Holding potential: −70 mV, potential during agonist/PAM application: −40 mV. Recording Procedure: • a) Extracellular buffer will be loaded into the PPC plate wells (11 μL per well). Cell suspension will be pipetted into the wells (9 μL per well) of the PPC planar electrode. • b) Whole-cell recording configuration will be established via patch perforation with membrane currents recorded by on-board patch clamp amplifiers. • c) Two recordings (scans) will be performed. First, during pre-application of test article alone (duration of pre-application—[…]) and second, during test articles and agonist (EC20 L-glutamate and 30 μM glycine) co-application to detect positive modulatory effects of the test article. […] Potentiating Effect of Positive Allosteric Modulators (PAM) on the Channel
(§4) PAM concentration-response data will be fitted to an equation of the form: % Activation=% L-glutamate EC20+{(% MAX−% L-glutamate EC20)/[1+([Test]/EC50)^N]}, where [Test] will be the concentration of PAM (test article), EC50 will be the concentration of PAM producing half-maximal activation, N will be the Hill coefficient, % L-glutamate EC20 will be the percentage of the current Elicited with L-glutamate EC20, % MAX is the percentage of the current activated with the highest dose of PAM co-admitted with L-glutamate EC20 and % Activation will be the percentage of the current elicited with L-glutamate EC10-30 at each PAM concentration. The maximal amplitude of the evoked currents are measured and defined as Peak Current Amplitude (PCA).

[2] = biological target: GluN2B glutamate receptors (Homo sapiens (Human), UniProt Q05586+Q13224); assay: Whole-cell patch clamp of mammalian cells (Ionworks Barracuda), positive allosteric modulation, GluN2B; assay type: cell-based; details: for Emax: read-out: Avg Emax 2B (%)
Sequence of GluN2B glutamate receptors (Q13224 27-1484, other chains not shown): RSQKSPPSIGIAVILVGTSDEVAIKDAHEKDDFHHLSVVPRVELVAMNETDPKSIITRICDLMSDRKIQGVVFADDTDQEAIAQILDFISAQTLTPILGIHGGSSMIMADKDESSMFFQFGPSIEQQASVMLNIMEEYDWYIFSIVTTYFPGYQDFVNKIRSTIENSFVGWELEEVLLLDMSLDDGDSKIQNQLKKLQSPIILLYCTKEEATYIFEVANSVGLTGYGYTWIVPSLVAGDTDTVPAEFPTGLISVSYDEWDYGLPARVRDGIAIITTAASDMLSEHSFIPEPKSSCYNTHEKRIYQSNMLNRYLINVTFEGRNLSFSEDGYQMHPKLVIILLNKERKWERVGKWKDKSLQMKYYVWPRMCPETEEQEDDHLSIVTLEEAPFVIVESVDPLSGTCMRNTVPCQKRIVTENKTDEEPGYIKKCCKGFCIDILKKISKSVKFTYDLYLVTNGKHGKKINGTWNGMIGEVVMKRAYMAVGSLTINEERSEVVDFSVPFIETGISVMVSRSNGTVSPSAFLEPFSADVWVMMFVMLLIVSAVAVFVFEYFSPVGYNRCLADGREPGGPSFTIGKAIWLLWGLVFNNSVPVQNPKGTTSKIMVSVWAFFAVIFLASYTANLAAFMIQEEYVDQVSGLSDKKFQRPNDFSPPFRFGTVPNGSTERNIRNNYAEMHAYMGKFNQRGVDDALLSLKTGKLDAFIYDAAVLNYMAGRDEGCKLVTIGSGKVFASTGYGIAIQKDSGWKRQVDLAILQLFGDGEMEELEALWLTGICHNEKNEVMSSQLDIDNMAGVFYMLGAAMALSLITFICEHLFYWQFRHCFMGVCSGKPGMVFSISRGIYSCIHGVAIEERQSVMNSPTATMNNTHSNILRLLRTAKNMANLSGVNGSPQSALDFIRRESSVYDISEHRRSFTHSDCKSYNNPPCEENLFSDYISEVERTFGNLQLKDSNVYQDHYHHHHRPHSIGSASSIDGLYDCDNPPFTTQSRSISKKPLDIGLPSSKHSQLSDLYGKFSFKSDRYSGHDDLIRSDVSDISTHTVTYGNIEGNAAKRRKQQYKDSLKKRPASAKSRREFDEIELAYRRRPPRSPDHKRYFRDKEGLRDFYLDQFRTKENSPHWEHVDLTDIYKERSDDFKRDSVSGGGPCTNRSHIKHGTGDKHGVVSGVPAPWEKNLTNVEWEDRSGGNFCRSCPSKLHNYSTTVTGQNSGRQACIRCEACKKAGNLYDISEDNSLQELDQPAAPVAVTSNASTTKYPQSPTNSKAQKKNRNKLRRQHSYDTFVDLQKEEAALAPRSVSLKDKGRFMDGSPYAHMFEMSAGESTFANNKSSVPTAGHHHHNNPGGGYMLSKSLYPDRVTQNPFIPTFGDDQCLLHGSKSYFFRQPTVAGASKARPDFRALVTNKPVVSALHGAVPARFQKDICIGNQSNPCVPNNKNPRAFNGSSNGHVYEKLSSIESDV
Procedure: as §1, §2, §3, §4

[3] = HEK293 cells, % potentiation of current elicited with EC20 L-glutamate and 30 μM glycine, read-out: Avg Emax 2A (%)
[4] = % potentiation of current elicited with EC20 L-glutamate and 30 μM glycine
[5] = HEK293 cells, co-application with EC20 L-glutamate and 30 μM glycine, 8-point concentration-response, read-out: Avg EC50 2A
[6] = co-application with EC20 L-glutamate and 30 μM glycine, 8-point concentration-response, read-out: Avg EC50 2B
[7] = HEK293, read-out: Avg Emax 2A (%)

Sequence of GlunN1/GluN2A glutamate receptors (Q12879 23-1464, other chains not shown): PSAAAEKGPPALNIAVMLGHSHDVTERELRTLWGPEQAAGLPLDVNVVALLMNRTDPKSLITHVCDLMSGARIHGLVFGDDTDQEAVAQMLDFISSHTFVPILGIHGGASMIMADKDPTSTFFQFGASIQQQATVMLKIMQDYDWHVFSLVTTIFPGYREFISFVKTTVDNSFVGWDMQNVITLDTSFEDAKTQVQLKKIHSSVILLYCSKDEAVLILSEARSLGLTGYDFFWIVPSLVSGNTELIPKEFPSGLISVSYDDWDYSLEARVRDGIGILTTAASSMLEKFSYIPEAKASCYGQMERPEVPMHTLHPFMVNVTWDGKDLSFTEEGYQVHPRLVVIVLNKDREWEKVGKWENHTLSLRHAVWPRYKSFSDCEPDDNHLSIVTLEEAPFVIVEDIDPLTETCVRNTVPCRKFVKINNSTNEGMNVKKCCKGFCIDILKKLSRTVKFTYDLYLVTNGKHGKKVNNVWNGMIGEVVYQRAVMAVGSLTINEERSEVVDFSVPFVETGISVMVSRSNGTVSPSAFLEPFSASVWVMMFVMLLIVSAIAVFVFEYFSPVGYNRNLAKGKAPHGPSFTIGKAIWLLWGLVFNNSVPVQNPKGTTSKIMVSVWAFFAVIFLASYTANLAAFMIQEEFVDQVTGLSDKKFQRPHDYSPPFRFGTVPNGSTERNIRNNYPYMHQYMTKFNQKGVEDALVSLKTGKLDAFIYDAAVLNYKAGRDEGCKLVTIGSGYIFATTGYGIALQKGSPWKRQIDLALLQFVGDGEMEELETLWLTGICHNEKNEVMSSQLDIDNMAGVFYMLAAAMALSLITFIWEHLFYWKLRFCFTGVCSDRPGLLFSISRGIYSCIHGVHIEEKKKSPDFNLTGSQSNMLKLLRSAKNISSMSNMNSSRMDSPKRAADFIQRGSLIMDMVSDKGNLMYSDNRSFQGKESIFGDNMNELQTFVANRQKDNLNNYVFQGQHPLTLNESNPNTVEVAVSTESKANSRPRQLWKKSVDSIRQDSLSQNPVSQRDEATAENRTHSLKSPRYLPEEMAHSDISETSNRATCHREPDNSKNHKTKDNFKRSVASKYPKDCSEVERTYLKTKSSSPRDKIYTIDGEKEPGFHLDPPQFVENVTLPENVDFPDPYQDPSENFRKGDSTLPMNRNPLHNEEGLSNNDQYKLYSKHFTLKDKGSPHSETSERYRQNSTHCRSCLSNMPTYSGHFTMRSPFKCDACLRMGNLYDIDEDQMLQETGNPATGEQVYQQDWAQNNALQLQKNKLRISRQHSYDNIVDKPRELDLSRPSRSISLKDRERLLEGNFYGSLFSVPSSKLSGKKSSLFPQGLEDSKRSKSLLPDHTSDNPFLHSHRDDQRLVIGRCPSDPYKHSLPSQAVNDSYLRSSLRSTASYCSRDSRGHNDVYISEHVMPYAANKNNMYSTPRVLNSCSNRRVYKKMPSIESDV

CCC(O)CC[C@@H](C)[C@H]1CC[C@H]2[C@@H]3CC=C4C[C@](O)(CC)CC[C@@H]4[C@H]3CC[C@]12C (stereo partly shown) [Compound 8564]
EC50 [1]: 469 nM
Emax [1, 3]: 252%
EC50 [2]: 489 nM
Emax [2, 4]: 310%

CC[C@]1(O)CC[C@@]2(C)C(=CC[C@H]3[C@@H]4CC[C@H]([C@H](C)CCC(O)c5ccccn5)[C@@]4(C)CC[C@@H]32)C1 (stereo partly shown) [Compound 6457]
EC50 [1]: 732 nM
Emax [1, 3]: 198%
EC50 [2]: 524 nM
Emax [2, 4]: 168%

CC[C@]1(O)CC[C@H]2C(=CC[C@@H]3[C@@H]2CC[C@]2(C)[C@@H]([C@H](C)CCC[C@H](O)C(C)(C)C)CC[C@@H]32)C1 [Compound 10043]
EC50 [1]: 897 nM
Emax [1, 3]: 146%
EC50 [2]: 1070 nM
Emax [2, 4]: 211%

CCC1(C)CCC(O)(CC[C@@H](C)[C@H]2CC[C@H]3[C@@H]4CC[C@H]5C[C@](O)(C(F)(F)F)CC[C@]5(C)[C@H]4CC[C@]23C)CC1 (stereo partly shown) [Compound 4906]
Emax [1, 3]: 8.8%
EC50 [1, 5]: > 10000 nM
Emax [2, 4]: 14.8%
EC50 [2, 6]: > 10000 nM

C[C@H](CC[C@@H](C)O)[C@H]1CC[C@H]2[C@@H]3CC=C4C[C@](O)(C(F)(F)F)CC[C@]4(C)[C@H]3CC[C@]12C [Compound 3266]
Emax [1, 3]: 82.6%
EC50 [1, 5]: 147 nM
Emax [2, 4]: 135%
EC50 [2, 6]: 377 nM

CC[C@]1(O)CC[C@H]2C(=CC[C@@H]3[C@@H]2CC[C@]2(C)[C@@H]([C@H](C)CCC(C)(C)O)CC[C@@H]32)C1 [Compound 780]
Emax [1, 3]: 132%
EC50 [1, 5]: 341 nM
Emax [2, 4]: 170%
EC50 [2, 6]: 263 nM

C[C@H](CCC[C@@H](O)C(F)(F)F)[C@H]1CC[C@H]2[C@@H]3CC[C@H]4C[C@](O)(C(F)(F)F)CC[C@]4(C)[C@H]3CC[C@]12C [Compound 3114]
Emax [1, 3]: 318%
EC50 [1, 5]: 382 nM
Emax [2, 4]: 294%
EC50 [2, 6]: 244 nM

C[C@H](CCC(O)C1CCC1)[C@H]1CC[C@H]2[C@@H]3CC[C@H]4C[C@](O)(C(F)(F)F)CC[C@]4(C)[C@H]3CC[C@]12C (stereo partly shown) [Compound 7]
Emax [1, 3]: 516%
EC50 [1, 5]: 300 nM
Emax [2, 4]: 484%
EC50 [2, 6]: 287 nM

CC[C@@H](O)CCC[C@@H](C)[C@H]1CC[C@H]2[C@@H]3CC=C4C[C@](O)(CC)CC[C@@H]4[C@H]3CC[C@]12C [Compound 10841]
EC50 [1]: > 10000 nM
Emax [1, 7]: 15.6%
EC50 [2]: > 10000 nM
Emax [2]: 30.1%

CC[C@]1(O)CC[C@H]2C(=CC[C@@H]3[C@@H]2CC[C@]2(C)[C@@H]([C@H](C)CCCC4(O)CC4)CC[C@@H]32)C1 [Compound 10790]
Emax [1, 3]: 160%
EC50 [1, 5]: 204 nM
Emax [2, 4]: 246%
EC50 [2, 6]: 271 nM

CC[C@]1(O)CC[C@H]2C(=CC[C@@H]3[C@@H]2CC[C@]2(C)[C@@H]([C@H](C)CCC4(O)CCC(C)(C)CC4)CC[C@@H]32)C1 [Compound 8946]
EC50 [1]: 1600 nM
Emax [1, 3]: 263%
EC50 [2]: 1350 nM
Emax [2, 4]: 231%

C[C@H](CC[C@H](O)C1CCOCC1)[C@H]1CC[C@H]2[C@@H]3CC[C@H]4C[C@](O)(C(F)(F)F)CC[C@]4(C)[C@H]3CC[C@]12C [Compound 2080]
EC50 [1]: 165 nM
Emax [1, 3]: 77.2%
EC50 [2]: 187 nM
Emax [2, 4]: 147%

C[C@H](CCCC1(O)CCC(F)(F)CC1)[C@H]1CC[C@H]2[C@@H]3CC[C@H]4C[C@](O)(C(F)(F)F)CC[C@]4(C)[C@H]3CC[C@]12C [Compound 11786]
Emax [1, 3]: 152%
EC50 [1, 5]: 584 nM
Emax [2, 4]: 151%
EC50 [2, 6]: 1010 nM

CC[C@]1(O)CC[C@H]2C(=CC[C@@H]3[C@@H]2CC[C@]2(C)[C@@H]([C@H](C)CCC4(O)CCC(F)(F)CC4)CC[C@@H]32)C1 [Compound 8708]
EC50 [1]: 697 nM
Emax [1, 3]: 117%
EC50 [2]: 553 nM
Emax [2, 4]: 243%

CC[C@]1(O)CC[C@H]2[C@@H](CC[C@@H]3[C@@H]2CC[C@]2(C)[C@@H]([C@H](C)CCC4(O)CC4)CC[C@@H]32)C1 [Compound 8127]
EC50 [1]: 543 nM
Emax [1, 3]: 136%
EC50 [2]: 571 nM
Emax [2, 4]: 211%

CC[C@]1(O)CC[C@H]2C(=CC[C@@H]3[C@@H]2CC[C@]2(C)[C@@H]([C@H](C)CCC4(O)CCOC4)CC[C@@H]32)C1 (stereo partly shown) [Compound 8689]
EC50 [1]: 169 nM
EC50 [2]: 175 nM

C[C@H](CCC1(O)CCOCC1)[C@H]1CC[C@H]2[C@@H]3CC[C@H]4C[C@](O)(C(F)(F)F)CC[C@]4(C)[C@H]3CC[C@]12C [Compound 11]
Emax [1, 3]: 151%
Emax [2, 4]: 157%

C[C@H](CCC(O)C1CCOCC1)[C@H]1CC[C@H]2[C@@H]3CC[C@H]4C[C@](O)(C(F)(F)F)CC[C@]4(C)[C@H]3CC[C@]12C (stereo partly shown) [Compound 9]
EC50 [1]: 317 nM
Emax [1, 3]: 181%
EC50 [2]: 234 nM
Emax [2, 4]: 271%

C[C@H](CCC(O)c1cccnc1)[C@H]1CC[C@H]2[C@@H]3CC=C4C[C@@](C)(O)CC[C@]4(C)[C@H]3CC[C@]12C (stereo partly shown) [Compound 255]
Emax [1, 3]: 159%
EC50 [1, 5]: 646 nM
Emax [2, 4]: 132%
EC50 [2, 6]: 153 nM

CC[C@H](O)CC[C@@H](C)[C@H]1CC[C@H]2[C@@H]3CC[C@H]4C[C@](O)(CC)CC[C@@H]4[C@H]3CC[C@]12C [Compound 8809]
EC50 [1]: 533 nM
Emax [1, 7]: 73.6%
EC50 [2]: 160 nM
Emax [2]: 78.2%

CC[C@]1(O)CC[C@H]2C(=CC[C@@H]3[C@@H]2CC[C@]2(C)[C@@H]([C@H](C)CCC[C@H](C)O)CC[C@@H]32)C1 [Compound 9911]
Emax [1, 3]: 234%
Emax [2, 4]: 326%

CC[C@]1(O)CC[C@H]2C(=CC[C@@H]3[C@@H]2CC[C@]2(C)[C@@H]([C@H](C)CCCC4(O)CCC(C)(C)CC4)CC[C@@H]32)C1 [Compound 10317]
Emax [1, 3]: 56.7%
Emax [2, 4]: 59.9%

CC[C@H]1CC[C@](O)(CC[C@@H](C)[C@H]2CC[C@H]3[C@@H]4CC[C@H]5C[C@](O)(C(F)(F)F)CC[C@]5(C)[C@H]4CC[C@]23C)CC1 [Compound 4476]
EC50 [1]: > 10000 nM
Emax [1, 3]: -3.3%
EC50 [2]: > 10000 nM
Emax [2, 4]: 10.4%

CC[C@]1(O)CC[C@@]2(C)C(=CC[C@H]3[C@@H]4CC[C@H]([C@H](C)CC[C@@H](O)c5ccccc5)[C@@]4(C)CC[C@@H]32)C1 [Compound 861]
EC50 [1]: 200 nM
Emax [1, 3]: 183%
EC50 [2]: 247 nM
Emax [2, 4]: 390%

C[C@H](CCC(O)C(C)(C)C)[C@H]1CC[C@H]2[C@@H]3CC[C@H]4C[C@](O)(C(F)(F)F)CC[C@]4(C)[C@H]3CC[C@]12C (stereo partly shown) [Compound 3]
EC50 [1]: 185 nM
Emax [1, 7]: 556%
EC50 [2]: 338 nM
Emax [2]: 532%

CC[C@]1(O)CC[C@H]2C(=CC[C@@H]3[C@@H]2CC[C@]2(C)[C@@H]([C@H](C)CC[C@@H](O)C(C)C)CC[C@@H]32)C1 [Compound 8463]
EC50 [1]: 102 nM
EC50 [2]: 85.1 nM

C[C@H](CC[C@]1(O)CCOC1)[C@H]1CC[C@H]2[C@@H]3CC=C4C[C@](O)(C(F)(F)F)CC[C@]4(C)[C@H]3CC[C@]12C [Compound 3496]
EC50 [1]: 35.1 nM

C[C@H](CCC(O)c1ccncc1)[C@H]1CC[C@H]2[C@@H]3CC=C4C[C@@](C)(O)CC[C@]4(C)[C@H]3CC[C@]12C (stereo partly shown) [Compound 154]
Emax [1, 3]: 18.2%
EC50 [1, 5]: > 10000 nM

CC[C@]1(O)CC[C@@]2(C)C(=CC[C@H]3[C@@H]4CC[C@H]([C@H](C)CC[C@H](O)c5ccc(F)cc5)[C@@]4(C)CC[C@@H]32)C1 [Compound 7146]
EC50 [2]: 216 nM

C[C@H](CC[C@]1(O)CC[C@H](C)CC1)[C@H]1CC[C@H]2[C@@H]3CC[C@H]4C[C@](O)(C(F)(F)F)CC[C@]4(C)[C@H]3CC[C@]12C [Compound 3877]
EC50 [2]: 512 nM

C[C@H](CC[C@@](C)(O)c1ccccc1)[C@H]1CC[C@H]2[C@@H]3CC=C4C[C@@](C)(O)CC[C@]4(C)[C@H]3CC[C@]12C [Compound 7467]
EC50 [2]: > 10000 nM
